Data taken from ChEMBL document CHEMBL1151999, “3-Lithioquinuclidin-2-ene: A novel intermediate for the synthesis of muscarinic agonists and antagonists” (Bioorg Med Chem Lett, 1994).

What follows are molecules tested against Muscarinic acetylcholine receptor M3 (Homo sapiens, UniProt P20309) (assay: In vitro binding affinity towards muscarinic receptor in parotid gland (M3)).
Format: tissue-based

Muscarinic acetylcholine receptor M3, sequence (P20309 whole entry): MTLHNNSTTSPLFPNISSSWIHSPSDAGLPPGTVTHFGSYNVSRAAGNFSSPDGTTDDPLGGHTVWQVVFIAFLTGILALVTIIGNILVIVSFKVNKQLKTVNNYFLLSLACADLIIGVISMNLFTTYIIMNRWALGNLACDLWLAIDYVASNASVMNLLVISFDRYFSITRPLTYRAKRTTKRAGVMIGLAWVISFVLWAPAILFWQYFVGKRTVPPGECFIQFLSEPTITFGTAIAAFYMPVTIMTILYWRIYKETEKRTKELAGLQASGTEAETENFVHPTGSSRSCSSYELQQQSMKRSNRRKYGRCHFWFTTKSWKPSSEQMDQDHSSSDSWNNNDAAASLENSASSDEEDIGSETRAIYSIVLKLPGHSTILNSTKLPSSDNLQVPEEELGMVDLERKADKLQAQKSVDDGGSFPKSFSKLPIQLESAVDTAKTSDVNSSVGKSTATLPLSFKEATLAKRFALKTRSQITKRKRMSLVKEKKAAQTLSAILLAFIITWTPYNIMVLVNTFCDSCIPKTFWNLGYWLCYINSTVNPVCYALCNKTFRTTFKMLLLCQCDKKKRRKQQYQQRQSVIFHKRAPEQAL

`OC1(C2=CN3CCC2CC3)c2ccccc2C=Cc2ccccc21` and `OC1(C2=CN3CCC2CC3)c2ccccc2-c2ccccc21` cannot be ordered by Ki: over 200 nM for the first, over 5000 nM for the second.

First: O=Cc1ccc(C2=CN3CCC2CC3)s1
Second: CC(=O)c1ccc(C2=CN3CCC2CC3)s1
The Ki of the first is 1.8-fold higher: 4800 nM for the first, 2600 nM for the second. The second binds more tightly here.

First: COc1ccccc1C(O)C1=CN2CCC1CC2 (configuration not stated)
Second: OC1(C2=CN3CCC2CC3)c2ccccc2Oc2ccccc21
The Ki of the first is 11-fold lower: 1500 nM for the first, 17000 nM for the second.

Going from `c1ccc2c(c1)C(=C1CN3CCC1CC3)c1ccccc1-2` to `OC1(C2=CN3CCC2CC3)c2ccccc2CCc2ccccc21`, the Ki rises from 100 nM to 6900 nM (69-fold). The first binds more tightly here.

Each molecule was assayed against T1, Muscarinic acetylcholine receptor M1 (Homo sapiens, UniProt P11229) (assay: In vitro binding affinity towards muscarinic receptor in cerebral cortex (M1) was determined).
T1 sequence (P11229 whole entry): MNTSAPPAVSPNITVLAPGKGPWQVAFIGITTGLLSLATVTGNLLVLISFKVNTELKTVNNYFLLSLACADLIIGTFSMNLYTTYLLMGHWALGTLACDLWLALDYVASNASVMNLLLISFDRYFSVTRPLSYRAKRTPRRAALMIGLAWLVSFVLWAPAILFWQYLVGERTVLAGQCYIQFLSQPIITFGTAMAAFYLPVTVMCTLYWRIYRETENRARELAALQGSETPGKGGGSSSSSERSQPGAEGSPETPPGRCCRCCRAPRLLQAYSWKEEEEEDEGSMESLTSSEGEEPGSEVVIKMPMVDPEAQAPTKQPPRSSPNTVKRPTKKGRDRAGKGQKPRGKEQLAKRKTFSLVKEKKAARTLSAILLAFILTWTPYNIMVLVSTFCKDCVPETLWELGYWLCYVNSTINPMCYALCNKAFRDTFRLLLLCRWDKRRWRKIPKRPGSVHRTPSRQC
Format: tissue-based

`OC1(C2=CN3CCC2CC3)c2ccccc2C=Cc2ccccc21` and `OC1(C2=CN3CCC2CC3)c2ccccc2-c2ccccc21` cannot be ordered by Ki: over 200 nM for the first, over 5000 nM for the second.

Compared with `O=Cc1ccc(C2=CN3CCC2CC3)s1`, `CC(=O)c1ccc(C2=CN3CCC2CC3)s1` is 2.1-fold lower in Ki: 990 nM for the first, 480 nM for the second.

Going from `COc1ccccc1C(O)C1=CN2CCC1CC2` (configuration not stated) to `OC1(C2=CN3CCC2CC3)c2ccccc2Oc2ccccc21`, the Ki rises from 330 nM to over 8000 nM. The first binds more tightly here.

Compared with `c1ccc2c(c1)C(=C1CN3CCC1CC3)c1ccccc1-2`, `OC1(C2=CN3CCC2CC3)c2ccccc2CCc2ccccc21` is 41-fold higher in Ki: 50 nM for the first, 2040 nM for the second. The first binds more tightly here.

Each molecule was assayed against Muscarinic acetylcholine receptor (Cavia porcellus) (assay: Binding affinity towards muscarinic receptor in urinary bladder was determined).

`COc1ccccc1C(O)C1=CN2CCC1CC2` (configuration not stated) and `c1ccc2c(c1)C(=C1CN3CCC1CC3)c1ccccc1-2` are within 1.5-fold of each other in Kb: 450 nM for the first, 370 nM for the second.

These molecules were tested against Muscarinic acetylcholine receptor (assay: In vitro binding affinity towards muscarinic receptor in urinary bladder was determined).
Format: protein assay, Cavia porcellus

First: O=Cc1ccc(C2=CN3CCC2CC3)s1
Second: CC(=O)c1ccc(C2=CN3CCC2CC3)s1
The Ki of the first is 2.2-fold higher: 5700 nM for the first, 2600 nM for the second.

Compared with `COc1ccccc1C(O)C1=CN2CCC1CC2` (configuration not stated), `OC1(C2=CN3CCC2CC3)c2ccccc2CCc2ccccc21` is 3.2-fold higher in Ki: 2500 nM for the first, 8000 nM for the second.

`c1ccc2c(c1)C(=C1CN3CCC1CC3)c1ccccc1-2` gave a Ki of 249 nM.

Molecule `OC1(C2=CN3CCC2CC3)c2ccccc2-c2ccccc21` has a Ki of over 5000 nM.

The molecules below were run against T2, Muscarinic acetylcholine receptor M2 (Homo sapiens, UniProt P08172) (assay: In vitro binding affinity towards muscarinic receptor in heart (M2) was determined).
T2 sequence (P08172 whole entry): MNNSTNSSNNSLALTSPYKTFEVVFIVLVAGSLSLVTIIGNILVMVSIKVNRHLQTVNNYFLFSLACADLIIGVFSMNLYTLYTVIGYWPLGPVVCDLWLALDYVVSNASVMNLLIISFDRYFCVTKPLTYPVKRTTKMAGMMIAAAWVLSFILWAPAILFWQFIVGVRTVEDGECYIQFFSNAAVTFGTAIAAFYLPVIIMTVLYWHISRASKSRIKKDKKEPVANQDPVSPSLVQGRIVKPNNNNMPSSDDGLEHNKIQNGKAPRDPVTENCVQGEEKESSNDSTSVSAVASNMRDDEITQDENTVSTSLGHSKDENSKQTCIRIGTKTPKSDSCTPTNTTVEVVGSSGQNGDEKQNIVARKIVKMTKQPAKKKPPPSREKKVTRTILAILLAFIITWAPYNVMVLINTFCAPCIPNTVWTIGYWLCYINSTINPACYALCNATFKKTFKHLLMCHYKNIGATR

`OC1(C2=CN3CCC2CC3)c2ccccc2C=Cc2ccccc21` and `OC1(C2=CN3CCC2CC3)c2ccccc2-c2ccccc21` cannot be ordered by Ki: over 200 nM for the first, over 5000 nM for the second.

Going from `O=Cc1ccc(C2=CN3CCC2CC3)s1` to `CC(=O)c1ccc(C2=CN3CCC2CC3)s1`, the Ki falls from 2600 nM to 1550 nM (1.7-fold).

Compared with `COc1ccccc1C(O)C1=CN2CCC1CC2` (configuration not stated), `OC1(C2=CN3CCC2CC3)c2ccccc2Oc2ccccc21` is higher in Ki: 2200 nM for the first, over 8000 nM for the second. The first binds more tightly here.

Going from `c1ccc2c(c1)C(=C1CN3CCC1CC3)c1ccccc1-2` to `OC1(C2=CN3CCC2CC3)c2ccccc2CCc2ccccc21`, the Ki rises from 98 nM to 2400 nM (24-fold).
